Assay results: paper PMC6406179 (F1000Research, 2018)
Where no end group is shown, it is not given here.

Each substance was assayed against T1, Mannheimia haemolytica leukotoxin (Lkt) (Mannheimia haemolytica, UniProt P16535) (assay: cell-based). Settings: IC50 (uM) aa 4-17.

Compared with QCPQLLLLAGLLAL [Cattle Q4C5], QCPQVLLLAGLLGL [Eland Q4C5V8G16] is 1.6-fold lower in IC50: 2.6 ± 0.1 µM for the first, 1.6 ± 0.1 µM for the second.

Going from RCPQLLLLAGLLAL [Cattle R4C5] to RCPQVLLLAGLLGL [Eland R4C5V8G16], the IC50 rises from 14.5 ± 0.6 µM to 33.3 ± 1.3 µM (2.3-fold). The first is the more potent here.

Same assay, conditions: IC50 (uM) aa 5-17

First: CPQVLLLAGLLGL [Eland C5V8G16]
Second: RPQLLFLSGLLAL [Sheep R5F10S12]
The IC50 of the first is 32-fold lower: 0.5 ± 0.1 µM for the first, 16.1 ± 1 µM for the second.

RPQLLLLAGLLAL [R5] and RPQLLLLAGLLSL [Water Buffalo R5S16] are within 1.5-fold of each other in IC50: 12.1 ± 0.6 µM for the first, 13.9 ± 1 µM for the second.

Same assay, conditions: IC50 (μM)

CPQLLLL [(B) 5-11] and CPQLLLLA [(B) 5-12] are within error of each other in IC50: 56.2 ± 5 µM for the first, 51.5 ± 5.7 µM for the second.

Going from CPQLLLLAG [(B) 5-13] to CPQLLLLAGL [(B) 5-14], the IC50 falls from 27.8 ± 2 µM to 6.7 ± 0.5 µM (4.1-fold). The second is the more potent here.

First: CPQLLLLAGLL [(B) 5-15]
Second: CPQLLLLAGLLA [(B) 5-16]
The IC50 of the first is 4.7-fold higher: 2.8 ± 0.2 µM for the first, 0.6 ± 0.1 µM for the second.

Going from CPQLLLLAGLLAL [C5] to MLRQCPQLLLLAGLLALQSVLS [R3C5], the IC50 rises from 1.5 ± 0.1 µM to 6.8 ± 0.5 µM (4.5-fold). The first is the more potent here.

First: MLRQRPQLLLLAGLLALQSVLS [R3R5]
Second: RPQLLLL [(A) 5-11]
The IC50 of the first is 5.1-fold lower: 12.7 ± 0.6 µM for the first, 64.8 ± 7.4 µM for the second.

RPQLLLLA [(A) 5-12] and RPQLLLLAG [(A) 5-13] are within error of each other in IC50: 81.8 ± 13.6 µM for the first, 75 ± 11.3 µM for the second.

RPQLLLLAGL [(A) 5-14] and RPQLLLLAGLL [(A) 5-15] are within 1.5-fold of each other in IC50: 23.1 ± 1.3 µM for the first, 26.4 ± 1.7 µM for the second.

RPQLLLLAGLLA [(A) 5-16] and RPQLLLLAGLLAL [R5] are within 1.5-fold of each other in IC50: 18 ± 0.8 µM for the first, 13.7 ± 0.6 µM for the second.

Same assay, conditions: IC50, concentration of peptide needed to block 50% of Lkt-induced cytolysis of BL3 cells

Compared with MLHQRPQLLLLAGLLALQSVLS [H3R5], MLRQCPQLLLLAGLLALQSVLS [R3C5] is 3.7-fold lower in IC50: 21.6 µM for the first, 5.9 µM for the second. The second is the more potent here.

Substance MLRQRPQLLLLAGLLALQSVLS [R3R5] has an IC50 of 17.9 µM.

Each substance was assayed against T1, Mannheimia haemolytica leukotoxin (Lkt) (assay: not given). Settings: not given.

For CPQLLLLAGLLAL [C5], the “fold better at blocking Lkt-induced cytotoxicity compared to the 13-mer R5 peptide” value was 8 fold.
